Patent US20240016788A1, “PHARMACEUTICAL COMPOSITION FOR PREVENTING OR TREATING DIABETIC AND POSTMENOPAUSAL OSTEOPOROSIS, CONTAINING ADIPORON” (PnP Biopharm Co., Ltd., priority 2020, published 2024)

Legend:
Format in all cases: in vivo
[1] = tested on: ovariectomized C57BL/6 mice; assay: Growth plate staining (trichrome, Safranin O) of ilium, ovariectomized mice; conditions: 6 weeks
Experimental: 7 weeks after ovariectomization or sham surgery of 7-week-old C57BL/6 mice, normal feed group (adiporon non-administered group; control group) administration group, 2.5 mg/kg day or 25 mg/kg day, respectively Feed comprising adiporon was consumed for 6 weeks from 14 weeks of age. Body weight was measured every week during the experiment period, and the experiment was conducted after 6 weeks of administration. […] Thereafter, after neutralization with 0.5M Phosphate buffer (pH 7.4), washing, and embedding in paraffin. Tissue sections were cut to a thickness of 5 μm, and hematoxylin and eosin staining (H&E staining), trichrome staining, and Safranin O staining were performed. In bone tissue, double immunofluorescence staining method was performed using anti-adiponectin receptor 1/2 antibody, anti-perilipin-1 antibody, anti-RANKL antibody, anti-TNF-α antibody, and ApopTag Fluorescein In Situ Apoptosis Detection Kit (Chemicon International, Temecula, CA) and expression was observed using a confocal microscope.

[2] = tested on: type 2 diabetic db/db mice; assay: Body weight, blood biochemistry and 24-hour urine oxidative stress in diabetic osteoporosis model db/db mice
Experimental: (§1) A leptin receptor-defective type 2 diabetic animal model (db/db mice) and a normal control group (db/m mice) were used, and the experiment was performed by dividing into 4 groups as follows: non-diabetic control group (dm cont, n=8), non-diabetic adiporon treatment group (dm+AdipoR, n=8), diabetic control group (db cont, n=8) and diabetic adiporon treatment group (db+AdipoR, n=8). The control group was fed a normal diet, and the adiporon treatment group was fed a diet comprising adiporon (30 mg/kg/day) for 4 weeks from 16 weeks of age. During the experiment, body weight was measured every week, fasting blood glucose was measured using an Accu-Chek meter (Roche Diagnostics, St. Louis, MO) every 2 weeks after blood was collected from the tail vein, and glycated hemoglobin (HbA1c) was measured every 4 weeks using a […] automatic analyzer (Bayer healthcare LLC, IN) after blood was collected from the tail vein. The temperature and humidity of the breeding room were maintained at 20˜25° C. and 50˜60%, respectively, and the lights were turned on and off at 12-hour intervals. In both experiments, blood collected from each mouse was allowed to stand at room temperature for 30 minutes, and then centrifuged at 3000 rpm for 15 minutes to obtain serum. Blood levels of tartrate-resistant acid phosphatase (TRAP/ACP5) and osterocalcin concentration were measured by ELISA. In addition, 8-hydroxy-deoxyguanosine, a DNA damage marker caused by oxidative stress, and isoprostane, a marker of oxidative stress caused by lipid peroxidation caused by free fatty acids, and deoxypyridinoline (DPP), which indicates the function of osteoclasts, were measured in 24-hour urine concentrations by ELISA method.

[3] = tested on: ovariectomized C57BL/6 mice; assay: Micro-CT of ilium (femur) and lumbar vertebra 5, ovariectomized mice; conditions: 6 weeks
Experimental: 7 weeks after ovariectomization or sham surgery of 7-week-old C57BL/6 mice, normal feed group (adiporon non-administered group; control group) administration group, 2.5 mg/kg day or 25 mg/kg day, respectively Feed comprising adiporon was consumed for 6 weeks from 14 weeks of age. Body weight was measured every week during the experiment period, and the experiment was conducted after 6 weeks of administration. The imaging was performed with micro-CT (Skyscan 1172, Belgium), the tube voltage was 60 kV, the tube current was 167 uA, 0.5 mm aluminum filtration was used, and the pixel size was 5.9 μm. For the shooting angle, a 2-dimensional image was reconstructed with Nrecon Reconstruction (Skyscan, Belgium). For 3D image analysis, CTAn (Skyscan, Belgium) was used, images were obtained by rotating 360°, and exposure time was 440 ms. A total of 7 types of indicators were used in this invention. BMD (bone mineral density, bone density) was measured based on phantoms of 0.25 g/cm^3 and 0.75 g/cm^3. BV/TV (Bone volume/Total volume, percent bone volume, %) is the ratio of voxels representing the solid region out of the total voxels present in the binarized and surfaced volume of interest, and it means the ratio occupied by bone trabeculae within the volume of interest, and i.s (Interception surfaces, mm2) means the generation of new bone. i.s (Interception surfaces, mm^2) means the creation of new bone. BS/BV (Bone surface/Bone volume, bone specific surface, mm^−1) is the ratio of the voxel surface area to the number of voxels in the binarized solid region within the volume of interest and it means the ratio of the surface area of the trabecular bone to the volume of the trabecular bone. The lower the value, the higher the bone strength. Tb.Th (trabecular thickness, mm) is obtained by averaging the diameters of these spheres, after placing a sphere comprising the corresponding voxel for each voxel representing the solid region within the volume of interest so that the size of the sphere is the largest that includes only the solid region and it means the average thickness of the trabecular bone. After making it possible, it is obtained by averaging the diameters of these spheres, which means the average thickness of the trabecular bone. In the same way, using Tb.Sp (trabecular separation, mm), the average length between trabecular lines and Tb.N (trabecular number, mm^−1) were used to obtain the average number of trabecular lines.

[4] = tested on: type 2 diabetic db/db mice; assay: Serum ACP5/TRAP, osteocalcin and urine deoxypyridinoline by ELISA, db/db mice; conditions: adiporon 30 mg/kg/day, 4 weeks
Experimental: as §1

[5] = db/db mice (type 2 diabetic), adiporon 30 mg/kg/day in diet for 4 weeks, mean ± SD
[6] = db/db mice, adiporon 30 mg/kg/day, 4 weeks, result in words
[7] = vertebrae (lumbar vertebrae 5), adiporon 2.5 mg/kg day
[8] = vertebrae (lumbar vertebrae 5), adiporon 25 mg/kg day

With `Cl.O=C(COc1ccc(C(=O)c2ccccc2)cc1)NC1CCN(Cc2ccccc2)CC1` [adiporon] the “Decreased thickness of the iliac growth plate” value ([1]; adiporon 2.5 mg/kg day) was “increased”, the “Decreased thickness of the iliac growth plate” value ([1]; adiporon 25 mg/kg day) was “increased” and the Body wt [2, 5] was 53 ± 4.8 g. For the same compound, the “Urinary 8-OHDG” value [2, 5] was 74.5 ± 19.6 ng/24 h, the Urinary isoprostane [2, 5] was 19.3 ± 9.4 ng/24 h and the “Changes of body weight, blood glucose, glycated hemoglobin, blood total cholesterol, triglyceride, free fatty acid and blood adiponectin” value ([2]; db/db mice vs db/m, adiporon 30 mg/kg/day, 4 weeks, result in words) was “restored”. For the same compound, the “24-hour urine concentration of 8-hydroxy-deoxyguanosine (increase in db/db)” value [2, 6] was “improved the index increase”, the “24-hour urine concentration of isoprostane (increase in db/db)” value [2, 6] was “improved the index increase” and the “Bone mineral density indicator (micro-CT)” value ([3]; ilium, adiporon 2.5 mg/kg day) was “increased and improved”. The “Bone surface indicator (micro-CT)” value ([3]; ilium, adiporon 2.5 mg/kg day) was “increased and improved”, the “Bone volume indicator (micro-CT)” value ([3]; ilium, adiporon 2.5 mg/kg day) was “increased and improved” and the “Trabecular number indicator (micro-CT)” value ([3]; ilium, adiporon 2.5 mg/kg day) was “increased and improved”. The “Trabecular thickness indicator (micro-CT)” value ([3]; ilium, adiporon 2.5 mg/kg day) was “increased and improved”, the “Bone mineral density indicator (micro-CT)” value ([3]; ilium, adiporon 25 mg/kg day) was “increased and improved” and the “Bone surface indicator (micro-CT)” value ([3]; ilium, adiporon 25 mg/kg day) was “increased and improved”. For the same compound, the “Bone volume indicator (micro-CT)” value ([3]; ilium, adiporon 25 mg/kg day) was “increased and improved”, the “Trabecular number indicator (micro-CT)” value ([3]; ilium, adiporon 25 mg/kg day) was “increased and improved” and the “Trabecular thickness indicator (micro-CT)” value ([3]; ilium, adiporon 25 mg/kg day) was “increased and improved”. For the same compound, the “Bone mineral density indicator (micro-CT)” value [3, 7] was “increased and improved”, the “Bone surface indicator (micro-CT)” value [3, 7] was “increased and improved” and the “Bone volume indicator (micro-CT)” value [3, 7] was “increased and improved”. The “Trabecular number indicator (micro-CT)” value [3, 7] was “increased and improved”, the “Trabecular thickness indicator (micro-CT)” value [3, 7] was “increased and improved” and the “Bone mineral density indicator (micro-CT)” value [3, 8] was “increased and improved”. For the same compound, the “Bone surface indicator (micro-CT)” value [3, 8] was “increased and improved”, the “Bone volume indicator (micro-CT)” value [3, 8] was “increased and improved” and the “Trabecular number indicator (micro-CT)” value [3, 8] was “increased and improved”. For the same compound, the “Trabecular thickness indicator (micro-CT)” value [3, 8] was “increased and improved”, the “Decreased serum ACP5/TRAP concentration” value ([4]; ELISA) was “restored” and the “Decreased serum osteocalcin concentration” value ([4]; ELISA) was “restored”. The “Increased concentration of deoxypyridinoline in urine” value ([4]; P<0.001) was “reversed”.
